Tests used:
[1] = target: CRBN-DDB1 / GST-IRAK4 ternary complex (Homo sapiens, UniProt Q96SW2+Q9NWZ3); test: AlphaLISA assay to determine ternary complex formation; type: binding
Method: The assay mixture contains 100 nM CRBN-DDB1, 100 nM GST-IRAK4, 20 μg/mL Nickle Chelate Donor Bead (Perkin Elmer Catalog # AS101D) and 20 μg/mL GSH Acceptor Bead (Perkin Elmer Catalog # AL109C) in a buffer containing 50 mM HEPES, pH 7.5, 100 mM NaCl, 0.1% BSA, 2 mM TCEP, 0.05% Tween-20. […] AlphaLISA signals (Excitation 680 nm and emission 615 nm) were recorded on a Perkin Elmer EnVision 2104 Multilabel reader. The raw data was converted to the relative amount of ternary complex formation by normalization to the signal generated by His-tagged GST protein only. The final data points were plotted and the curves were fit using non-linear regression using GraphPad Prism software.

[2] = target: T1, IRAK4 (Homo sapiens, UniProt Q9NWZ3); test: OCI-LY-10 degradation assay (western blot, % IRAK4 degraded after 4 hours); type: cell-based; set-up: endogenous in cells; host or cells: OCI-LY10; conditions: OCI-LY10 cells, IRAK4 degraded after 4 hours, western blot
T1 sequence (Q9NWZ3 1-460): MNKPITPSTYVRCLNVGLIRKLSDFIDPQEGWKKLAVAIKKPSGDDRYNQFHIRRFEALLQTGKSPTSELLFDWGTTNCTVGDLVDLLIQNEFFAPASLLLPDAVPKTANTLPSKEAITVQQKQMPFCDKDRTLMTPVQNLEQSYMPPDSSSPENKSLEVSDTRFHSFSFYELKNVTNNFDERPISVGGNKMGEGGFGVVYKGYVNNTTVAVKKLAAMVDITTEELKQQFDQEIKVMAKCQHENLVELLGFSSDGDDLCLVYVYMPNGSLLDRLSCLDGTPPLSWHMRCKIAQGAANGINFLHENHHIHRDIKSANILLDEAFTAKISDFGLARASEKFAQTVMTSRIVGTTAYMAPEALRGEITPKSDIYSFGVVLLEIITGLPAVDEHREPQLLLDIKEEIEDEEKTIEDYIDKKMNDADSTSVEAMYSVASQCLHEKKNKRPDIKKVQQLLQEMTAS
Outline: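 IRAK4 loss after 4 h at 37° C was scored A (>50%), B (>20-50%) or C (<20%) from infrared western blots of RIPA lysates, 20-25 μg protein per lane. Compound was applied at 0.003-10 μM final to OCI-LY10 cells cultured in RPMI-1640 with 20% FBS and 55 μM 2-ME.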

CRBN-DDB1 / GST-IRAK4 ternary complex, sequence (Q96SW2 whole entry, one chain of several): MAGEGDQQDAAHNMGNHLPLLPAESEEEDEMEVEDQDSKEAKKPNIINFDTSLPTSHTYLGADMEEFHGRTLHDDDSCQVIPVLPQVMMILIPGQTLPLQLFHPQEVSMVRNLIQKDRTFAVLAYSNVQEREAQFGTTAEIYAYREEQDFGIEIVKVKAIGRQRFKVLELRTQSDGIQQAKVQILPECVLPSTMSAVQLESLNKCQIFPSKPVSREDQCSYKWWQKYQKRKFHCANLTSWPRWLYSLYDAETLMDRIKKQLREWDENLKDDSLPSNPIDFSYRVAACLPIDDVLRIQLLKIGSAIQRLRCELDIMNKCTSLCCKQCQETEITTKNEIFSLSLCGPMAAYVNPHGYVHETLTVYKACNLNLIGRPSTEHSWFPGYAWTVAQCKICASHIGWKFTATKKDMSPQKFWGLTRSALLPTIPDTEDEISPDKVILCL
CRBN-DDB1 / GST-IRAK4 ternary complex, sequence (Q16531 whole entry partner, one chain of several): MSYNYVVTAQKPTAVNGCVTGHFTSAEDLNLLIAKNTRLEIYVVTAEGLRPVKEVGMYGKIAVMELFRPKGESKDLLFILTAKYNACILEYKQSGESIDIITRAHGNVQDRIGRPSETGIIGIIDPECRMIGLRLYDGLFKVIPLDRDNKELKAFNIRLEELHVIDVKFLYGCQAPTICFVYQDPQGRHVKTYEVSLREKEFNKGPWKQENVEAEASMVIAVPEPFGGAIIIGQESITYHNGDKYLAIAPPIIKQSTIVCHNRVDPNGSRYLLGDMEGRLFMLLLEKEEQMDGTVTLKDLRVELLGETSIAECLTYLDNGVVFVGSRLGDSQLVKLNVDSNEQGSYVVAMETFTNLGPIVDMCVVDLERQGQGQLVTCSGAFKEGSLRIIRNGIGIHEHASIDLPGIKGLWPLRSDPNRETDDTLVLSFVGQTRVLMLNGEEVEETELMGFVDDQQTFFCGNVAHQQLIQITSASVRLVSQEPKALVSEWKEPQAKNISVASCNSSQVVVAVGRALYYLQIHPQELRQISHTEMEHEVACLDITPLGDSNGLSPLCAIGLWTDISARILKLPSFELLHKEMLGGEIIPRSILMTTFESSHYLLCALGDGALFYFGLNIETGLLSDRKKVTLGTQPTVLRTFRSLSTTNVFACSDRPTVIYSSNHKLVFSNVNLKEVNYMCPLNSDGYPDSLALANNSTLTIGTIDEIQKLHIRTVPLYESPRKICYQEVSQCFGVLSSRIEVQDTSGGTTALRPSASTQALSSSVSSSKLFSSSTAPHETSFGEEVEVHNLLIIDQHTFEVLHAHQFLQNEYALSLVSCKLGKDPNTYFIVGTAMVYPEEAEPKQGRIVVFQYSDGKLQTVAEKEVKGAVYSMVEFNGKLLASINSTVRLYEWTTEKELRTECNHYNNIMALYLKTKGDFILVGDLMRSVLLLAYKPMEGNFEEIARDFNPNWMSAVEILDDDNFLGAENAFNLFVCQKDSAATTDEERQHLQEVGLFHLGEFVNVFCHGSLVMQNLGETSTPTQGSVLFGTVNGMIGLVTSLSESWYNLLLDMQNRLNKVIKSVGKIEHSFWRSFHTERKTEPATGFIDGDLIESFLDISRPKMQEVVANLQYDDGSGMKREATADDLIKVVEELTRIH

SMILES: NC(=O)c1nn(-c2cccc(C(=O)NCCOCCOCCNc3cccc4c3C(=O)N(C3CCC(=O)NC3=O)C4=O)c2)cc1NC(=O)c1coc(-c2ccnc(NCC(F)(F)F)c2)n1 (stereo not shown) [I-135]
- Average % Ternary Complex (N = 2) ([1]; compound concentration 1.00E−07 M): 4.16%
- Average % Ternary Complex (N = 2) ([1]; compound concentration 1.25E−08 M): 0.76%
- Average % Ternary Complex (N = 2) ([1]; compound concentration 1.28E−05 M): 0.61%
- Average % Ternary Complex (N = 2) ([1]; compound concentration 1.60E−06 M): 0.67%
- Average % Ternary Complex (N = 2) ([1]; compound concentration 2.00E−07 M): 6.15%
- Average % Ternary Complex (N = 2) ([1]; compound concentration 2.50E−08 M): 1.05%
- Average % Ternary Complex (N = 2) ([1]; compound concentration 3.20E−06 M): 0.57%
- Average % Ternary Complex (N = 2) ([1]; compound concentration 4.00E−07 M): 4.22%
- Average % Ternary Complex (N = 2) ([1]; compound concentration 5.00E−08 M): 2.54%
- Average % Ternary Complex (N = 2) ([1]; compound concentration 6.25E−09 M): 0.55%
- Average % Ternary Complex (N = 2) ([1]; compound concentration 6.40E−06 M): 0.5%
- Average % Ternary Complex (N = 2) ([1]; compound concentration 8.00E−07 M): 1.25%
- OCI-LY10 % IRAK4 Degradation [2]: B (>20-50% degradation)

Reference: US10874743B2, “IRAK degraders and uses thereof” (Kymera Therapeutics, Inc., priority 2017, dated 2020)
